Entries after “also recorded” stand apart in the source; their conditions may differ.
Tests used:
individual = experiment: Self-administration of combinations and single-compound controls, subjective reports recorded by the individual; type: in vivo, human
Experimental: In several examples of such administration, the combinations as follows were self-administered, with the subjective reports recorded by the individual during and/or following such administration, as below.
The following example was performed for purposes of and is presented as a control.
In an example, the combination as set forth below was self-administered, with the report as follows.
The working example below was performed for purposes of and is presented as a control.
The working examples below were also performed for purposes of and are presented as controls, using an escalating dose of a single primer alone, applicable to this and other Examples.

α2-adrenergic receptor = details: cited from earlier work
I1 Imidazoline Sites = details: cited from earlier work; for Selectivity Ratio: I1 relative to α2 (α2 value / I1 value)
subjects [1] = details: cited from earlier work
[2] = cited from earlier work
subjects [3] = details: subjects administered MDMA; cited from earlier work
I1 = details: cited from earlier work
[4] = control: 4.0 mg 5-MeO-MiPT alone
[5] = control: 8.0 mg 5-MeO-MiPT alone
[6] = control: 10.0 mg 5-MeO-MiPT alone

With `COc1nc(C)nc(Cl)c1NC1=NCCN1` [Moxonidine, 4-Chloro-N-(4,5-dihydro-1H-imidazol-2-yl)-6-methoxy-2-methylpyrimidin-5-amine] the “subjective effects (self-report)” value (individual; control: 0.2 mg Moxonidine alone, 12:30 pm) was “more focused, probably more centered, less distracted by thinking; also recorded: All very subtle but detectable”.
For `CC1CCC(Nc2ccc(I)cc2Cl)=N1` (centres unmarked) [LNP911, 2-(2-chloro-4-iodo-phenylamino)-5-methyl-pyrroline], the “affinity or activity for the α2-adrenergic receptor” value (“affinity or activity” for short) (α2-adrenergic receptor) is given as “no detectable affinity or activity”.
For `CC1CCC(Nc2cc(N=[N+]=[N-])c(I)cc2Cl)=N1` (centres unmarked) [LNP906, 2-(5-azido-2-chloro-4-iodo-phenyl-amino)-5-methyl-pyrroline], the “affinity or activity” value (α2-adrenergic receptor) is given as “no detectable affinity or activity”.
With `COc1ccc2[nH]cc(CCN(C)C(C)C)c2c1` [Example 5-MeO-MiPT, N-isopropyl-5-methoxy-N-methyltryptamine] the “physical discomfort (self-report)” value (individual; [4]) was “my brain was so heavy and tired”, the “subjective effects (self-report)” value (individual; [4]) was “My emotion is quite neutral, not much different from the normal state” and the “subjective effects (self-report)” value (individual; control: 6.0 mg 5-MeO-MiPT alone) was “generally emotionally neutral”. For the same molecule, the “physical discomfort (self-report)” value (individual; [5]) was “my body was uncoordinated, and I trembled a lot”, the “subjective effects (self-report)” value (individual; [5]) was “There was no emergence of a stable mental state; also recorded: There was not much feeling” and the “physical discomfort (self-report)” value (individual; [6]) was “My stomach was so upset that I had to vomit”. For the same molecule, the “subjective effects (self-report)” value (individual; [6]) was “void of emotion and mental activities”.
For `CC1CNC(Nc2c(Cl)cccc2Cl)=N1` (centres unmarked) [LNP630, (2,6-dichloro-phenyl)-(4-methyl-4,5-dihydro-1H-imidazol-2-yl)-amine], the “affinity or activity” value (α2-adrenergic receptor) is listed as “no detectable affinity or activity”.
In the case of `C1COC(NC(C2CC2)C2CC2)=N1` [Rilmenidine, N-(dicyclopropylmethyl)-4,5-dihydro-1,3-oxazol-2-amine], the “subjective effects (self-report)” value (individual; control: 1.0 mg Rilmenidine alone, 9:00 pm) is given as “relaxing, my chest less strained; also recorded: the effect was subtle”, the “Selectivity Ratio” value (I1 Imidazoline Sites) is given as 29.51 and the “selectivity for I1 relative to α2 receptors” value (I1 Imidazoline Sites; I1 relative to α2 receptors) is given as “about 30 fold”.
For `CNC(C)Cc1ccc2c(c1)OCO2` (racemic) [MDMA, (RS)-1-(1,3-Benzo-dioxol-5-yl)-N-methylpropan-2-amine], the subject-reported sociability (subjects [1]; following administration of MDMA) is listed as “increases in sociability”, the “brain imaging responses to facial expressions” value (subjects [1]; subjects administered MDMA) is listed as “attenuated responses to angry facial expressions and enhanced responses to happy expressions” and the “effect on a stutter (case, Shulgin & Shulgin, 1991)” value ([2]; graduate student) is listed as “dramatic improvements in a stutter”. For the same molecule, the “efficacy in autistic social impairment (systematic review, Chaliha, 2021)” value ([2]; in vivo) was “efficacious as a pharmacological treatment” and the “mental state decoding (mind reading) of social cues” value (subjects [3]) was “enhanced mental state decoding of positive stimuli, such as friendliness, and impaired the accuracy of mind reading for negative stimuli”.
In the case of `CC1CC(NC(C2CC2)C2CC2)=NC1C` (centres unmarked) [LNP509, dicyclopropylmethyl-(4,5-dimethyl-4,5-dihydro-3H-pyrrol-2-yl)-amine], the “affinity or activity” value (α2-adrenergic receptor) is given as “no detectable affinity or activity”.
For `CC(Oc1c(Cl)cccc1Cl)C1=NCCN1` (centres unmarked) [Lofexidine], the “Selectivity Ratio” value (I1 Imidazoline Sites) is given as 3.63.
In the case of `Cc1c(Cl)cccc1NC1=NCC(C)C1` (centres unmarked) [LNP599], the “affinity or activity” value (α2-adrenergic receptor) is given as “no detectable affinity or activity” and the “affinity for I1” value (I1) is given as “nanomolar affinity”.

Source: patent US20250177354A1, “THERAPEUTIC COMBINATIONS, COMPOSITIONS, AND METHODS FOR DESIGNING AND PRODUCING EN[…]” (Mindstate Design Labs, Inc., priority 2022, published 2025)
